Experimental data reported in patent US6143719A, “Bradykinin analogs as selective thrombin inhibitors” (The Regents of the University of Michigan, priority 1996, dated 2000).
Read-outs that look alike come from different tables or passages of the source. Ends that are not written are not given here.

System: platelets
Type: cell-based, human
Conditions: washed platelets, α-thrombin 1 nM
Experimental: Fresh whole blood was collected and mixed with 0.013 M sodium citrate and platelet-rich plasma was prepared according to the method of Meloni et al., J. Biol. Chem. 266, 6786, 1991. Washed platelets were prepared by gel filtration over Sepharose 2B columns in Hepes-Tyrode's buffer (0.137 M NaCl, 3 mM KCl, 0.4 mM Na H2 PO4, 12 mM NaHCO3, 1 mM MgCl2, 14.7 mM Hepes containing 20 mM glucose and 0.2% bovine serum albumin, pH 7.35). Platelets for aggregation and secretion studies were incubated according to the method of Schmaier et al., Blood 56, 1013, 1980 with 5-[^14 C]hydroxytryptamine for 30 min at 37° C. The washed platelets (2×10^8 /ml, final concentration radiolabeled with 5-[^14 C]hydroxytryptamine) were added to a cuvette of an aggregometer (Chronolog Corp., Havertown, Pa.), standardized using the protocol of Meloni et al., supra. After the addition of ZnCl2, final concentration 50 μM, purified HK (1 μM) or various concentrations of the peptides (0.1 to 3 mM) or buffer alone was added to the cuvette. Once the baseline stabilized, α-thrombin [0.125 U/ml (1 nM) final concentration] was then added to initiate platelet activation. Stirred platelets were allowed to incubate with o-thrombin and additions for 1 min. In other experiments, platelets were stimulated with TRAP (0.625 to 2.5 μM), ADP (1-5 μM)(Sigma), collagen (1.25 μg/ml) (Horm, Munich, Germany), or U-46619 (1 μM)(Calbiochem Behring, San Diego, Calif.). Additional experiments were performed with washed platelets stimulated with γ-thrombin (1 nM) in the presence of human fibrinogen (100 mg/dl). Both γ-thrombin and human fibrinogen were purchased from Enzyme Research Laboratories, South Bend, Ind. At the conclusion of the incubation, the entire platelet sample was centrifuged at 10,900 xg (Model E, Beckman Instruments, Palo Alto, Calif.) over a 0.135 mM formaldehyde, 5 mM EDTA solution (1 part of formaldehyde-EDTA to 4 parts of platelet suspension) and stored on ice until an aliquot of the supernatant was assayed for 5-[^14 C]hydroxytryptamine secretion. Percent secretion was determined by the ratio of the loss of 5-[^14 C]hydroxytryptamine in the supernatant of the agonist-treated specimen to the loss of 5-[^14 C]hydroxytryptamine in the supernatant of the platelet lysate after the value of the control supernatant (i.e., the level of 5-[^14 C]hydroxytryptamine in a unstimulated sample) was subtracted from both.

RPPGFSPFR [BK, bradykinin]
IC50 (read-out: IC50 AGGREGATION (inhibition of α-thrombin-induced platelet aggregation)): 250 µM
IC50 (read-out: IC50 SECRETION (inhibition of α-thrombin-induced platelet secretion)): 1000 µM
